One series addresses T1, CYP2B6 (Homo sapiens, UniProt P20813).
T1 construct: from tissue; host or cells: human liver microsomes
T1 sequence (P20813 1-491): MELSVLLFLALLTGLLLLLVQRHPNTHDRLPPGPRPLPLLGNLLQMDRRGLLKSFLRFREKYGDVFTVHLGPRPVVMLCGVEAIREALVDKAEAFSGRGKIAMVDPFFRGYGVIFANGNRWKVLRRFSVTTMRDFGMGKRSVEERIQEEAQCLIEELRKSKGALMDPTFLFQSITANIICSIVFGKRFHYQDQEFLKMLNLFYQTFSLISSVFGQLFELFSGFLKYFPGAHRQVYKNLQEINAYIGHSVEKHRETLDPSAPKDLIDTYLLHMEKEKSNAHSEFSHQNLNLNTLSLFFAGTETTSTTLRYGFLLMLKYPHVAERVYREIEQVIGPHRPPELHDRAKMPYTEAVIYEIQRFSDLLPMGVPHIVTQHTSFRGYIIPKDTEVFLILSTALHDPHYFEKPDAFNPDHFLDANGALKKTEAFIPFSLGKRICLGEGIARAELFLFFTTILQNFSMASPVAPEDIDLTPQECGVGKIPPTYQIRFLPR
The series can be described thus: HLM-LC-MS CYP450 inhibition assay, CYP2B6. Type of series: in vitro ADME. The note with it: substrate bupropion 70 μM, hydroxylation, read-out: Compound IC50. Here is the method:
(§1) Compounds were tested in triplicate.

A short description of series [1]: Plasma pharmacokinetics after single I.P./I.V. dose in male BALB/c mice (LC-MS/MS). The note with it: for AUC(0-inf): AUC0-inf; for AUC(0-t): AUC0-t; for Vd: VdSS; for clearance: CL; for k el: Kel. The method, then:
After dosing, blood samples were collected at different time points for each group. […] Three animals were used for each time point. Approximately 800 μL of blood was collected via orbital vein (a source of collecting sufficient volume of venous blood) from each anesthetized mouse by isoflurane, and 200 μL of blood was collected from the cannula implanted in the jugular vein. The catheter was implanted when the blood sample was collected at the first time point. Next, the blood was transferred to a prepared tube containing sodium heparin anticoagulant and mixed briefly by gentle inversion three to four times. The target and actual time of blood sampling were recorded relative to the time of dosing. Samples were placed on wet ice immediately after collection. Within 1 hour after collection, plasma was separated by centrifugation at 4,000 rpm for 10 minutes at 4 °C. The plasma was protected from light and stored at −80 °C until analyzed by liquid chromatography-mass spectrometry/mass spectrometry (LC-MS/MS) for quantification.
Using the data from the standards, calibration curves were generated for each analytical batch. Aliquots of 10.0 μL of samples, calibraton curve samples, and QC samples were supplemented with 100 μL of precipitant (a mixture of acetone and acetonitrile (30:70)). After vortexing for 3 min and centrifuging at 12,000 rpm for 3 min, 75.00 μL of the supernatant was transferred into a 96-well microplate with an equal volume of water. The 10 μL mixture solution was injected for LC-MS/MS analysis.
Data collection was performed using Analyst version 1.4 from Applied Biosystems. […] The data were also analyzed using Prism 5.0 software. Statistical significance was determined using independent two-tailed Student t-tests and one-way ANOVA for independent data. Differences of P < 0.05 were regarded as significant for all statistical analyses.

For series [2] the following is noted: male, Sprague-Dawley, rat, in vivo, iv.
A further series can be described thus: in vivo. Particulars: male, Sprague-Dawley, rat, iv; for AUC(0-inf): AUC0-inf; for AUC(0-t): AUC0-t.
Series [3] is described as follows: Plasma pharmacokinetics after single I.P./I.V. dose in male Sprague-Dawley rats (LC-MS/MS). The note with it: for MRTIV / clearance / k el: SD rats; for clearance / k el / half-life: male, Sprague-Dawley, rat, plasma, iv, 1 mg/kg; for clearance: CL; for k el: Kel; for half-life: t1/2, SD rats.
Another series concerns the target T2, CYP2C19 (Homo sapiens, UniProt P33261).
T2 construct: from tissue; host or cells: human liver microsomes
Briefly: HLM-LC-MS CYP450 inhibition assay, CYP2C19. It counts as in vitro ADME. Particulars: substrate S-mephenytoin 35 μM, 4-hydroxylation, read-out: Compound IC50. The method, then:
as §1

Where [4] appears, read: male, BALB/c, mouse, in vivo, iv, 2 mg/kg.
Where [5] appears, read: male, BALB/c, mouse, plasma, iv, 2 mg/kg, BALB/c mice, doxorubicin I.V. 2.00 mg/kg alone.
Setting [6] is: male, BALB/c, mouse, plasma, iv, 2 mg/kg, BALB/c mice, doxorubicin I.V. 2.00 mg/kg combined with NSC23925b 2.50 mg/kg.
Setting [7] is: doxorubicin I.V. 1.00 mg/kg alone.
Setting [8] is: doxorubicin I.V. 1.00 mg/kg combined with NSC23925b 2.50 mg/kg.
Where [9] appears, read: male, BALB/c, mouse, in vivo, iv, 5 mg/kg.

Read-outs that look alike come from different tables or passages of the source.

T2 sequence (P33261 whole entry): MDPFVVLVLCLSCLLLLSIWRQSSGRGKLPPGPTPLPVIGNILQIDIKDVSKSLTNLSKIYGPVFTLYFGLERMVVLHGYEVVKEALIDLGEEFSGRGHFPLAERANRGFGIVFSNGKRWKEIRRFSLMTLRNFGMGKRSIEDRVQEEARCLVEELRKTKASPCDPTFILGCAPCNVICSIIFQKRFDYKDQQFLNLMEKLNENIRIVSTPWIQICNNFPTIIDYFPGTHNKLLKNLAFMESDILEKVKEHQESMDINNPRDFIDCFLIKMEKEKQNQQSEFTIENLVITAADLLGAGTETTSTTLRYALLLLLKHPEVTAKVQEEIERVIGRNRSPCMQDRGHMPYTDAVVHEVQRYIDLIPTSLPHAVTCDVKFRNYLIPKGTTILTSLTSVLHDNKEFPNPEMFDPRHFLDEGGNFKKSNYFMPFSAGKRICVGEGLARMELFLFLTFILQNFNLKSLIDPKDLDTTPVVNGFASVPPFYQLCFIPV

As for `COC(=O)[C@H](c1ccccc1Cl)N1CCc2sccc2C1` [Clopidogrel, reference compound], the IC50 on CYP2B6 was 914 nM.

Turning to `COc1cccc2c1C(=O)c1c(O)c3c(c(O)c1C2=O)C[C@@](O)(C(=O)CO)C[C@@H]3O[C@H]1C[C@H](N)[C@H](O)[C@H](C)O1` [Doxorubicin, reference compound], the MRTIV in series [1] (BALB/c mice, doxorubicin I.V. 2.00 mg/kg alone) is on record as 14.6 ± 5.71 h; in series [1] (BALB/c mice, doxorubicin I.V. 2.00 mg/kg combined with NSC23925b 2.50 mg/kg), 17.3 ± 4.17 h; in series [3] (setting [7]), 11.1 ± 2.41 h; in series [3] (setting [8]) it was 16.1 ± 0.771 h. In addition, the AUMC0-inf in series [1] (setting [4]) was 4157 ± 2493 h·h·ng·mL^−1. Besides, the AUMC0-t in series [1] (setting [4]) is 1470 ± 309 h·h·ng·mL^−1; in series [2] (1 mg/kg) it was 446 ± 282 h·h·ng·mL^−1. For the same compound, the AUC(0-inf) in series [1] (setting [4]) came out at 272 ± 53.7 ng·h/mL; in the series “in vivo” (1 mg/kg), 117 ± 32.5 ng·h/mL. Further, the AUC(0-t) was determined as 207 ± 9.76 ng·h/mL in series [1] (setting [4]) and 89.7 ± 35.6 ng·h/mL in the series “in vivo” (1 mg/kg). Besides, the Vd in series [1] (setting [4]) stood at 105 ± 19.8 L/kg; in “in vivo” (1 mg/kg, VdSS), 97.1 ± 19.5 L/kg. The clearance in series [1] (setting [5]) stood at 126 ± 22.4 mL/min/kg; in series [1] (setting [6]) it was 155 ± 19.2 mL/min/kg; in series [3] (setting [7]), 151 ± 43.1 mL/min/kg; in series [3] (setting [8]), 120 ± 7.57 mL/min/kg. In addition, the k el was 1.89e-05 s⁻¹ in series [1] (setting [5]), 1.52e-05 s⁻¹ in series [1] (setting [6]), 1.93e-05 s⁻¹ in series [3] (setting [7]) and 1.35e-05 s⁻¹ in series [3] (setting [8]). Besides, the half-life in series [1] (male, BALB/c, mouse, plasma, iv, 2 mg/kg, t1/2, BALB/c mice, doxorubicin I.V. 2.00 mg/kg alone) is 10.7 ± 3.29 h; in series [1] (male, BALB/c, mouse, plasma, iv, 2 mg/kg, t1/2, BALB/c mice, doxorubicin I.V. 2.00 mg/kg combined with NSC23925b 2.50 mg/kg), 12.8 ± 1.91 h; in series [3] (setting [7]), 10.5 ± 2.76 h; in series [3] (setting [8]) it was 14.3 ± 0.87 h.

With `COc1ccc2[nH]c([S+]([O-])Cc3ncc(C)c(OC)c3C)nc2c1` (centres unmarked) [Omeprazole, reference compound], at CYP2C19, the concentration for half-maximal inhibition (IC50) is 4080 nM.

In series [1] (setting [9]), `CC(=O)O[C@H]1C(=O)[C@@]2(C)[C@H]([C@H](OC(=O)c3ccccc3)[C@]3(O)C[C@H](OC(=O)[C@H](O)[C@@H](NC(=O)c4ccccc4)c4ccccc4)C(C)=C1C3(C)C)[C@]1(OC(C)=O)CO[C@@H]1C[C@@H]2O` [Paclitaxel, reference compound] showed an AUMC0-inf of 2911 ± 400 h·h·ng·mL^−1, an AUMC0-t of 2728 ± 356 h·h·ng·mL^−1, an MRTIV of 1.16 ± 0.147 h and an AUC(0-inf) of 2520 ± 244 ng·h/mL. In series [1] (setting [9]), the AUC(0-t) was found to be 2500 ± 238 ng·h/mL, the clearance turned out to be 33.2 ± 3.12 mL/min/kg, the k el is 0.000149 s⁻¹ and the Vd worked out at 2.31 ± 0.428 L/kg. The compound further had a half-life in series [1] (male, BALB/c, mouse, in vivo, iv, 5 mg/kg, t1/2) of 1.33 ± 0.28 h. In series [2] (5 mg/kg), this compound displayed an AUMC0-inf of 29892 ± 4245 h·h·ng·mL^−1, an AUMC0-t of 13231 ± 1265 h·h·ng·mL^−1, a Kel of 0.0602 ± 0.0042 h⁻¹ and an MRTIV of 6.50 ± 0.853 h. The compound further came in with a VdSS in series [2] (5 mg/kg) of 7.13 ± 1.34 L/kg. In the series “in vivo” (5 mg/kg), this compound yielded an AUC(0-inf) of 4610 ± 517 ng·h/mL and an AUC(0-t) of 4200 ± 492 ng·h/mL. The same compound registered a clearance in “in vivo” (5 mg/kg, CL) of 18.2 ± 1.93 mL/min/kg.

The IC50 is the concentration at which inhibition is half-maximal. The term AUC(0-inf) denotes the area under the concentration-time curve extrapolated to infinity. The low end stands for less exposure, the high end for more exposure. What is called AUC(0-t) is exposure summed from dosing to a finite time, without extrapolation to infinity. A lower AUC(0-t) goes with low exposure. As a reminder, the Vd is a proportionality between amount in the body and measured concentration, not a real space. Low values mean confinement near the circulation, high ones extensive tissue distribution. As a reminder, the half-life is the time needed for the level to fall by half in the phase considered.

These data come from article PMC4860631, “Pharmacokinetics and tolerability of NSC23925b, a novel P-glycoprotein inhibitor: preclinical study in mice and rats” (Scientific Reports, 2016).
